Positions of bridges follow the written chain, without caps; N, C: chain ends. Non-standard residues stand in square brackets, D forms with d. Residues, ends and D or L forms follow the SMILES beside them. Nle = CCCC[C@H](N)C(=O)O

The test system of experiment [1] is Frog (Rana pipiens) Skin. Type of experiment: cell-based. Conditions: cyclic analogues; for Biological Potency Frog: alpha-MSH = 1.0. Here is the method:
(§1) The biological potencies of alpha-MSH, the linear and cyclic analogues were determined by their ability to stimulate melanosome dispersion in vitro in the frog and lizard bioassays. This in vitro assay provides clear cut dose response curves (between 2.5×10^-11 and 4×10^-10 M) and can detect minimal concentration of alpha-MSH of about 10^-11 M. The assay is based upon the centrifugal dispersion of melanosomes (melanin granules) within the dendritic processes of integumental dermal melanophores leading to darkening of the skin. All the test solutions were prepared via serial dilutions from a stock solution (10^-4 M). The frogs (Rana pipiens) used in these evaluations were obtained from Kons Scientific, Germantown, Wis., and the lizards (Anolis carolinensis) were from the Snake Farm, La Place, La.

The subject of experiment [2] is Lizard (Anolis carolinensis) Skin. The class given is cell-based. To be noted: cyclic analogues; for Biological Potency Lizard: alpha-MSH = 1.0. On the procedure: as §1
The test system is the same in experiment [3]. Conditions: relative to alpha-MSH = 1.0; selective fragments of alpha-MSH, previous research; cited from earlier work.
Experiment [4] deals with Frog (Rana pipiens) Skin. Conditions: cited from earlier work; for Relative Potency Frog: relative to alpha-MSH = 1.0, selective fragments of alpha-MSH, previous research.

On to `CCCC[C@H](NC(C)=O)C(=O)N[C@H]1CCC(=O)NCCCC[C@@H](C(=O)NCC(=O)N2CCC[C@H]2C(=O)N[C@H](C(N)=O)C(C)C)NC(=O)[C@H](Cc2c[nH]c3ccccc23)NC(=O)[C@H](CCCNC(=N)N)NC(=O)[C@@H](Cc2ccccc2)NC(=O)[C@H](Cc2c[nH]cn2)NC1=O` [Analogue 15] (Ac-[Nle]EH[dF]RWKGPV-NH2; lactam 2-7), for which, in the experiment on Frog (Rana pipiens) Skin [1], the “Residual Activity Frog (prolonged action)” value (shortened to “Residual Activity Frog”) is listed as “p(+)” and the “Biological Potency Frog” value amounted to 1.0. Besides, in experiment [2], the “Residual Activity Lizard (prolonged action)” value (from here on “Residual Activity Lizard”) was “p(+)” and the “Biological Potency Lizard” value stood at 6.0.

Turning to `CCCC[C@H](NC(C)=O)C(=O)N[C@H]1CCC(=O)NCCCC[C@@H](C(N)=O)NC(=O)[C@H](Cc2c[nH]c3ccccc23)NC(=O)[C@H](CCCNC(=N)N)NC(=O)[C@@H](Cc2ccccc2)NC(=O)[C@H](Cc2c[nH]cn2)NC1=O` [Analogue 16], in the experiment with Frog (Rana pipiens) Skin [1], the “Residual Activity Frog” value is given as “p(+)” and the “Biological Potency Frog” value is given as 0.5. In experiment [2], the “Residual Activity Lizard” value is reported as “p(+)” and the “Biological Potency Lizard” value came to 9.0.

Turning to `CCCC[C@H](NC(C)=O)C(=O)N[C@H]1CC(=O)NCCC[C@@H](C(N)=O)NC(=O)[C@H](Cc2c[nH]c3ccccc23)NC(=O)[C@H](CCCNC(=N)N)NC(=O)[C@@H](Cc2ccccc2)NC(=O)[C@H](Cc2c[nH]cn2)NC1=O` [Analogue 18], in the experiment on Frog (Rana pipiens) Skin [1], the “Residual Activity Frog” value is recorded as “p(-)” and the “Biological Potency Frog” value was found to be 1.0. For the same compound, in experiment [2], the “Residual Activity Lizard” value was “p(-)” and the “Biological Potency Lizard” value came to 20.0.

Take `CCCC[C@H](NC(C)=O)C(=O)N[C@H]1CC(=O)NCC[C@@H](C(N)=O)NC(=O)[C@H](Cc2c[nH]c3ccccc23)NC(=O)[C@H](CCCNC(=N)N)NC(=O)[C@@H](Cc2ccccc2)NC(=O)[C@H](Cc2c[nH]cn2)NC1=O` [Analogue 19]: in the experiment on Frog (Rana pipiens) Skin [1], the “Residual Activity Frog” value is given as “p(-)” and the “Biological Potency Frog” value worked out at 1.0. Also, in experiment [2], the “Residual Activity Lizard” value was “p(-)” and the “Biological Potency Lizard” value was 5.0.

Regarding `CCCC[C@H](NC(C)=O)C(=O)N[C@H]1CC(=O)NC[C@@H](C(N)=O)NC(=O)[C@H](Cc2c[nH]c3ccccc23)NC(=O)[C@H](CCCNC(=N)N)NC(=O)[C@@H](Cc2ccccc2)NC(=O)[C@H](Cc2c[nH]cn2)NC1=O` [Analogue 20], in the experiment with Frog (Rana pipiens) Skin [1], the “Residual Activity Frog” value was “p(-)” and the “Biological Potency Frog” value is recorded as 0.01. Also, in experiment [2], the “Residual Activity Lizard” value is “p(-)” and the “Biological Potency Lizard” value was 5.0.

Ac--[Nle^4 ]-alpha-MSH4-10 NH2: the “Relative Potency Lizard” value in experiment [3] is 0.06. Also, in the experiment on Frog (Rana pipiens) Skin [4], the “Relative Potency Frog” value is on record as 0.002.

Ac--[Nle^4 ]-alpha-MSH4-11 NH2: the “Relative Potency Lizard” value in experiment [3] was 1.0. Further, the “Relative Potency Frog” value with Frog (Rana pipiens) Skin [4] is given as 0.002.

For the compound “Ac--[Nle^4, D--Phe^7 ]-alpha-MSH4-10 NH2”, the “Relative Potency Lizard” value in experiment [3] is recorded as 10.0. Besides, the “Relative Potency Frog” value in the experiment on Frog (Rana pipiens) Skin [4] is recorded as 0.02.

Regarding Ac--[Nle^4,D--Phe^7 ]-alpha-MSH1-13 NH2, the “Relative Potency Lizard” value in experiment [3] is recorded as 5.0. In addition, the “Relative Potency Frog” value in the experiment with Frog (Rana pipiens) Skin [4] is 60.0.

As for “Ac-Met-Glu-His-Phe-Arg-Trp-Gly-NH2 [Ac-alpha-MSH4-10 NH2]”, in experiment [3], the “Relative Potency Lizard” value is 0.004. The “melanocyte stimulating activity in frog skin” value in the experiment on Frog (Rana pipiens) Skin [4] (compared to the native hormone) is reported as “weak agonist”. The “Relative Potency Frog” value in the experiment on Frog (Rana pipiens) Skin [4] is given as 0.0003.

Ac[Nle^4, D--Phe^7 ]-alpha-MSH4-11 NH2: the “Relative Potency Lizard” value in experiment [3] is listed as 8.0. Further, the “Relative Potency Frog” value in the experiment with Frog (Rana pipiens) Skin [4] is recorded as 0.16.

(Values after US5714576A, “Linear analogs of alpha-msh fragments” (Competitive Technologies, Inc., priority 1997, dated 1998).)
